These results are taken from US9284321B2, “Piperazino[1,2-a]indol-1-ones and [1,4]diazepino[1,2-a]indol-1-one” (Hoffmann-La Roche Inc., priority 2012, dated 2016).

As a reminder, the melting point is the temperature of the solid-liquid transition.

In series [1] the test system is human embryonic stem cell derived neural stem cells (NSCs). The series can be described thus: Neural Stem Cell Proliferation Assay (neurogenesis assay, ATP levels by CellTiterGlo). The format is cell-based. The following applies: 96 h, compound concentration at which 150% activity of control (100%) is reached, NSC proliferation by ATP level after 4 days incubation, dose response 8 μM to 8 nM. In short, it runs like this:
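Read-out is CellTiterGlo ATP luminescence after 4-day culture (37 °C, 5% CO2) of dual-SMAD-derived human ESC NSCs, dosed 4 h post-seeding at 8 μM to 8 nM (11 points, 2-fold). EC150 marks the concentration reaching 150% of the media-only control (0.25% DMSO).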
Background: ATP-based viability assays read luminescence as a measure of living cells.

For `COc1ncc(-c2cc(F)cc3c(C)c4n(c23)CCNC4=O)cn1` [Example 156, 8-Fluoro-6-(2-methoxy-pyrimidin-5-yl)-10-methyl-3,4-dihydro-2H-pyrazino[1,2-a]indol-1-one], the melting point is 271 °C. In addition, the EC (150% of control) in series [1] worked out at 0.11 µM.

Consider `Cc1c2n(c3c(-c4cnc(N)nc4)cc(F)cc13)CCNC2=O` [Example 157, 6-(2-Amino-pyrimidin-5-yl)-8-fluoro-10-methyl-3,4-dihydro-2H-pyrazino[1,2-a]indol-1-one], for which the melting point was determined as 310 °C. The EC (150% of control) in series [1] worked out at 0.19 µM.

As for `Cc1c2n(c3c(-c4ccc(N(C)C)nc4)cc(F)cc13)CCNC2=O` [Example 158, 6-(6-Dimethylamino-pyridin-3-yl)-8-fluoro-10-methyl-3,4-dihydro-2H-pyrazino[1,2-a]indol-1-one], the melting point was 259 °C. In series [1], this compound came in with an EC (150% of control) of 0.012 µM.

Regarding `Cc1c2n(c3c(-c4cc(F)c(F)c(F)c4)cc(F)cc13)CCNC2=O` [Example 159, 8-Fluoro-10-methyl-6-(3,4,5-trifluoro-phenyl)-3,4-dihydro-2H-pyrazino[1,2-a]indol-1-one], the melting point was 250 °C. Further, in series [1], the EC (150% of control) came to 0.22 µM.

Turning to `Cc1c2n(c3c(-c4ccc(N)nc4)cc(F)cc13)CCNC2=O` [Example 160, 6-(6-Amino-pyridin-3-yl)-8-fluoro-10-methyl-3,4-dihydro-2H-pyrazino[1,2-a]indol-1-one], the melting point is 254 °C. The compound further yielded an EC (150% of control) in series [1] of 0.18 µM.

The compound `Cc1c2n(c3c(-c4ccc(N)nc4)cc(Cl)cc13)CCNC2=O` [Example 161, 6-(6-Amino-pyridin-3-yl)-8-chloro-10-methyl-3,4-dihydro-2H-pyrazino[1,2-a]indol-1-one] came in with a melting point of 250 °C. For the same compound, in series [1], the EC (150% of control) was 0.27 µM.

On to `Cc1c2n(c3c(-c4ccc(F)cc4)cc(C#N)cc13)CCNC2=O` [Example 162, 6-(4-Fluoro-phenyl)-10-methyl-1-oxo-1,2,3,4-tetrahydro-pyrazino[1,2-a]indole-8-carbonitrile], for which the melting point was determined as 292 °C. Also, the EC (150% of control) in series [1] turned out to be 0.021 µM.

In the case of `Cc1c2n(c3c(-c4ccc(Cl)cc4)cc(C#N)cc13)CCNC2=O` [Example 163, 6-(4-Chloro-phenyl)-10-methyl-1-oxo-1,2,3,4-tetrahydro-pyrazino[1,2-a]indole-8-carbonitrile], the melting point was determined as 298 °C. Besides, the EC (150% of control) in series [1] is 0.013 µM.

Consider `Cc1c2n(c3c(-c4ccc(F)c(F)c4)cc(C#N)cc13)CCNC2=O` [Example 164, 6-(3,4-Difluoro-phenyl)-10-methyl-1-oxo-1,2,3,4-tetrahydro-pyrazino[1,2-a]indole-8-carbonitrile], for which the melting point amounted to 243 °C. In series [1], this compound came in with an EC (150% of control) of 0.045 µM.

`Cc1c2n(c3c(-c4ccc(C(F)(F)F)cc4)cc(C#N)cc13)CCNC2=O` [Example 165, 10-Methyl-1-oxo-6-(4-trifluoromethyl-phenyl)-1,2,3,4-tetrahydro-pyrazino[1,2-a]indole-8-carbonitrile] gave a melting point of 282 °C. For the same compound, in series [1], the EC (150% of control) worked out at 0.018 µM.

As for `Cc1c2n(c3c(-c4ccc(C#N)cc4)cc(C#N)cc13)CCNC2=O` [Example 166, 6-(4-Cyano-phenyl)-10-methyl-1-oxo-1,2,3,4-tetrahydro-pyrazino[1,2-a]indole-8-carbonitrile], the melting point was 323 °C. Moreover, the EC (150% of control) in series [1] stood at 0.028 µM.

`Cc1c2n(c3c(-c4ccc(Cl)cc4Cl)cc(C#N)cc13)CCNC2=O` [Example 167, 6-(2,4-Dichloro-phenyl)-10-methyl-1-oxo-1,2,3,4-tetrahydro-pyrazino[1,2-a]indole-8-carbonitrile]: the melting point was found to be 274 °C. Further, in series [1], the EC (150% of control) stood at 0.002 µM.

Regarding `Cc1c2n(c3c(-c4ccnc(F)c4)cc(C#N)cc13)CCNC2=O` [Example 168, 6-(2-Fluoro-pyridin-4-yl)-10-methyl-1-oxo-1,2,3,4-tetrahydro-pyrazino[1,2-a]indole-8-carbonitrile], the melting point amounted to 256 °C. In addition, in series [1], the EC (150% of control) turned out to be 0.064 µM.

Compound `Cc1c2n(c3c(-c4ccc(F)nc4)cc(C#N)cc13)CCNC2=O` [Example 169, 6-(6-Fluoro-pyridin-3-yl)-10-methyl-1-oxo-1,2,3,4-tetrahydro-pyrazino[1,2-a]indole-8-carbonitrile] had a melting point of 272 °C. Also, the EC (150% of control) in series [1] amounted to 0.066 µM.

Consider `Cc1c2n(c3c(-c4ccc(OC(F)(F)F)cc4)cc(C#N)cc13)CCNC2=O` [Example 170, 10-Methyl-1-oxo-6-(4-trifluoromethoxy-phenyl)-1,2,3,4-tetrahydro-pyrazino[1,2-a]indole-8-carbonitrile], for which the melting point was found to be 239 °C. The same compound showed an EC (150% of control) in series [1] of 0.014 µM.

As for `Cc1c2n(c3c(-c4nccs4)cc(F)cc13)CCNC2=O` [Example 171, 8-Fluoro-10-methyl-6-thiazol-2-yl-3,4-dihydro-2H-pyrazino[1,2-a]indol-1-one], the melting point worked out at 268 °C. In series [1], this compound returned an EC (150% of control) of 0.36 µM.

Compound `N#Cc1cc(-c2ccc(Cl)c(F)c2)c2c(c1)cc1n2CCNC1=O` [Example 172, 6-(4-Chloro-3-fluoro-phenyl)-1-oxo-1,2,3,4-tetrahydro-pyrazino[1,2-a]indole-8-carbonitrile] had a melting point of 309 °C. In addition, in series [1], the EC (150% of control) was 0.045 µM.

The compound `N#Cc1cc(-c2ccc(F)cc2F)c2c(c1)cc1n2CCNC1=O` [Example 173, 6-(2,4-Difluoro-phenyl)-1-oxo-1,2,3,4-tetrahydro-pyrazino[1,2-a]indole-8-carbonitrile] yielded a melting point of 292 °C. This compound came in with an EC (150% of control) in series [1] of 0.01 µM.

The compound `N#Cc1cc(-c2ccc(Cl)cc2F)c2c(c1)cc1n2CCNC1=O` [Example 174, 6-(4-Chloro-2-fluoro-phenyl)-1-oxo-1,2,3,4-tetrahydro-pyrazino[1,2-a]indole-8-carbonitrile] showed a melting point of 278 °C. The compound further displayed an EC (150% of control) in series [1] of 0.019 µM.

`N#Cc1cc(-c2ccc(Cl)cc2Cl)c2c(c1)cc1n2CCNC1=O` [Example 175, 6-(2,4-Dichloro-phenyl)-1-oxo-1,2,3,4-tetrahydro-pyrazino[1,2-a]indole-8-carbonitrile] had a melting point of 284.5 °C. Further, the EC (150% of control) in series [1] worked out at 0.034 µM.

The compound `N#Cc1ccc(-c2cc(C#N)cc3cc4n(c23)CCNC4=O)cc1` [Example 176, 6-(4-Cyano-phenyl)-1-oxo-1,2,3,4-tetrahydro-pyrazino[1,2-a]indole-8-carbonitrile] yielded a melting point of 363 °C. Besides, the EC (150% of control) in series [1] worked out at 0.17 µM.

The compound `N#Cc1cc(-c2ccnc(F)c2)c2c(c1)cc1n2CCNC1=O` [Example 177, 6-(2-Fluoro-pyridin-4-yl)-1-oxo-1,2,3,4-tetrahydro-pyrazino[1,2-a]indole-8-carbonitrile] came in with a melting point of 289 °C. Besides, in series [1], the EC (150% of control) was 0.68 µM.

The compound `Cc1c2n(c3c(-c4ccc(Cl)c(F)c4)cc(C#N)cc13)CCNC2=O` [Example 178, 6-(4-Chloro-3-fluoro-phenyl)-10-methyl-1-oxo-1,2,3,4-tetrahydro-pyrazino[1,2-a]indole-8-carbonitrile] returned a melting point of 260 °C. In series [1], the EC (150% of control) worked out at 0.048 µM.

For `Cc1c2n(c3c(-c4ccc(F)cc4F)cc(C#N)cc13)CCNC2=O` [Example 179, 6-(2,4-Difluoro-phenyl)-10-methyl-1-oxo-1,2,3,4-tetrahydro-pyrazino[1,2-a]indole-8-carbonitrile], the melting point stood at 237 °C. In series [1], this compound came in with an EC (150% of control) of 0.013 µM.

Regarding `Cc1c2n(c3c(-c4ccc(Cl)cc4F)cc(C#N)cc13)CCNC2=O` [Example 180, 6-(4-Chloro-2-fluoro-phenyl)-10-methyl-1-oxo-1,2,3,4-tetrahydro-pyrazino[1,2-a]indole-8-carbonitrile], the melting point came out at 270 °C. Moreover, in series [1], the EC (150% of control) was 0.008 µM.

`O=C1NCCn2c1c(C(F)(F)F)c1cc(F)cc(-c3ccc(F)cc3)c12` [Example 181, 8-Fluoro-6-(4-fluoro-phenyl)-10-trifluoromethyl-3,4-dihydro-2H-pyrazino[1,2-a]indol-1-one] registered a melting point of 193 °C. In addition, the EC (150% of control) in series [1] amounted to 0.62 µM.

As to `N#Cc1cc(-c2ccc(F)c(F)c2)c2c(c1)c(C(F)(F)F)c1n2CCNC1=O` [Example 182, 6-(3,4-Difluoro-phenyl)-1-oxo-10-trifluoromethyl-1,2,3,4-tetrahydro-pyrazino[1,2-a]indole-8-carbonitrile], the melting point stood at 217 °C. In series [1], this compound gave an EC (150% of control) of 0.29 µM.

`Cc1c2n(c3c(-c4ccc(Cl)s4)cc(F)cc13)CCNC2=O` [Example 183, 6-(5-Chloro-thiophen-2-yl)-8-fluoro-10-methyl-3,4-dihydro-2H-pyrazino[1,2-a]indol-1-one]: the melting point stood at 185 °C. Further, the EC (150% of control) in series [1] came out at 0.19 µM.

In turn, `Cc1c2n(c3c(-c4nnc(C(F)(F)F)s4)cc(F)cc13)CCNC2=O` [Example 184, 8-Fluoro-10-methyl-6-[5-(trifluoromethyl)-1,3,4-thiadiazol-2-yl]-3,4-dihydro-2H-pyrazino[1,2-a]indol-1-one] showed a melting point of 227 °C. Further, in series [1], the EC (150% of control) was 1.11 µM.

`Cc1c2n(c3c(-c4ccc(C#N)s4)cc(F)cc13)CCNC2=O` [Example 185, 5-(8-Fluoro-10-methyl-1-oxo-3,4-dihydro-2H-pyrazino[1,2-a]indol-6-yl)thiophene-2-carbonitrile] displayed a melting point of 249 °C. The compound further displayed an EC (150% of control) in series [1] of 0.11 µM.

Compound `Cc1c2n(c3c(-c4ncc(C(F)(F)F)s4)cc(F)cc13)CCNC2=O` [Example 186, 8-Fluoro-10-methyl-6-[5-(trifluoromethyl)-1,3-thiazol-2-yl]-3,4-dihydro-2H-pyrazino[1,2-a]indol-1-one] registered a melting point of 263 °C. In series [1], this compound showed an EC (150% of control) of 0.33 µM.
